Measurements: US20100286164A1, “SUBSTITUTED ARYL ALKYLAMINO-OXY-ANALOGS AND USES THEREOF” (The Brigham and Women's Hospital, Inc, priority 2007, published 2010)

Molecular target: T1, γ-secretase (C100FLAG APP-based substrate) (Homo sapiens, UniProt P49768)
T1 construct: made in house; host or cells: S-1 CHO cell line (Chinese hamster ovary)
Test: In vitro γ-secretase assay, C-100 Flag (APP-based substrate) cleavage
Type: biochemical
Settings: effect on C-100 Flag cleavage; compounds tested in vitro at 100 μM
Experimental: (§1) Purification of γ-Secretase and in Vitro γ-Secretase Assays—The following procedures can be used to isolate γ-secretase and measure its enzymatic activity. The multistep procedure for the high grade purification of human γ-secretase from the S-1 cells is performed as described previously (Fraering, P. C., et al. (2004) Biochemistry 43, 9774-9789). In vitro γ-secretase assays using the recombinant APP-based substrate C100FLAG and the recombinant Notch-based substrate N100FLAG are performed as reported previously (Esler, W. P., Kimberly, W. T., Ostaszewski, B. L., Ye, W., Diehl, T. S., Selkoe, D. J., and Wolfe, M. S. (2002) Proc. Natl. Acad. Sci. U.S.A. 99, 2720-2725, Kimberly, W. T., et al. (2003) Biochemistry 42, 137-144). Basically, the proteolytic reaction mixtures contain C100FLAG and N100FLAG substrate at a concentration of 1 μm, purified γ-secretase solubilized in 0.2% CHAPSO/HEPES, pH 7.5, at 10-fold dilution from stock (stock=the M2 anti-FLAG-eluted fraction in the purification protocol from S-1 cells (Fraering, P. C., et al. (2004) Biochemistry 43, 9774-9789)), 0.025% phosphatidylethanolamine (PE), and 0.10% phosphatidylcholine (PC). All the reactions are stopped by adding 0.5% SDS, and the samples are assayed for Aβ40 and Aβ42 by ELISA as described (Xia, W., Zhang, J., Ostaszewski, B. L., Kimberly, W. T., Seubert, P., Koo, E. H., Shen, J., and Selkoe, D. J. (1998) Biochemistry 37, 16465-16471). The capture antibodies are 2G3 (to Aβ residues 33-40) for the Aβ40 species and 21F12 (to Aβ residues 33-42) for the Aβ42 species.
(§2) Western Blotting and Antibodies—The following assay can be used to determine the extent to which the compounds of interest modulate the cleavage of APP and the Notch receptor. For Western analysis of PS1-NTF, PS1-CTF, Aph1α2-HA, FLAG-Pen-2, and NCT-GST, the samples are run on 4-20% Tris-glycine polyacrylamide gels, transferred to polyvinylidene difluoride, and can be probed with Ab14 (for PS1-NTF, 1:2000; a gift of S. Gandy), 13A11 (for PS1-CTF, 5 μg/ml; a gift of Elan Pharmaceuticals), 3F10 (for Aph1α2-HA, 50 ng/ml; Roche Applied Science), anti-FLAG M2 (for FLAG-Pen-2, 1:1000; Sigma), or αGST antibodies (for NCT-GST, 1:3000; Sigma). Samples from the γ-secretase activity assays (above) are run on 4-20% Tris-glycine gels and can be transferred to polyvinylidene difluoride membranes to detect AICD-FLAG with anti-FLAG M2 antibodies (1:1000, Sigma) and NICD-FLAG with Notch Ab1744 antibody (1:1000, Cell Signaling Technology), which is selective for the N terminus of NICD; the same samples are transferred to nitrocellulose membranes to detect Aβ with the anti-Aβ 6E10 antibody. Levels of AICD-FLAG and NICD-FLAG are estimated by densitometry using AlphaEase/Spot Denso (Alpha Innotech Corp.).
(§3) Naphthyl Amine Alcohol Analogs and Assay Data—Compounds listed in Table 2 may be assayed as described herein (e.g., in Examples 3 and 4) and the specificity may be evaluated by comparing the relative inhibitions of C-100 Flag and N-100 Flag cleavage. The potency of the inhibitor may be evaluated with an Aβ1-40 ELISA assay (e.g., using an Aβ40 ELISA kit available from Invitrogen, Carlsbad, Calif.). […] The following table indicates the properties of certain compounds of the invention that were assayed as described herein. (INH=Inhibits)

| Compound | γ-Secretase Assay C-100 Flag |
| --- | --- |
| COc1ccc(CN(CCC(O)c2ccc3ccccc3c2)C(C)C)cc1 (stereo not shown) [Example 29] | Inh |
| CC(CN(Cc1ccccc1)C(C)C)C(O)c1ccc2ccccc2c1 (stereo not shown) [Example 88] | Inh |
| COc1ccc(NCCC(O)c2ccc(Cl)cc2)cc1 (stereo not shown) [Example 80] | Enh |
| COC(CCN(Cc1ccccc1)C(C)C)c1ccc2ccccc2c1 (stereo not shown) [Example 84] | Inh |
| Cc1ccc(NCCC(O)c2ccc3ccccc3c2)cc1F (stereo not shown) [Example 78] | Enh |
| OC(CCNc1ccccc1)c1ccc2ccccc2c1 (stereo not shown) [Example 10] | Enh |
| CCN(CCC(O)c1ccc2ccccc2c1)Cc1ccccc1 (stereo not shown) [Example 12] | Enh |
| COc1ccc(N2CCN(CCC(O)c3ccc4ccccc4c3)CC2)cc1 (stereo not shown) [Example 2] | No change (NC) |
| OC(CCNc1ccc(Oc2ccccc2)cc1)c1ccc2ccccc2c1 (stereo not shown) [Example 77] | Inh |
| CCOc1ccc(NCCC(O)c2ccc(F)cc2)cc1 (stereo not shown) [Example 79] | Enh |

Molecular target: T2, γ-secretase (Aβ1-40 production) (Homo sapiens, UniProt P49768)
T2 construct: made in house; host or cells: S-1 CHO cell line (Chinese hamster ovary)
Test: γ-Secretase assay, Aβ1-40 ELISA
Type: biochemical
Settings: 50 μM
Experimental: as §1, §3

| Compound | inhibition at 50 µM [%] |
| --- | --- |
| C[C@@H](CN1CCN(c2ccc(F)cc2)CC1)[C@H](O)c1ccc2ccccc2c1 [Example 89] | 9 |
| C[C@H](CN1CCN(c2ccc(F)cc2)CC1)[C@H](O)c1ccc2ccccc2c1 [Example 90] | 0 |

Same assay, conditions: 100 μM

| Compound | inhibition at 100 µM [%] | γ-Secretase Assay ELISA % Inhibition [100 μM] Aβ1-40 [%] |
| --- | --- | --- |
| CC(C)(C)N(CCC(O)c1ccc2ccccc2c1)Cc1ccccc1 (stereo not shown) [Example 11] | 0 |  |
| OC(CCNc1ccc(Cl)c(Cl)c1)c1ccc2ccccc2c1 (stereo not shown) [Example 23] | 0 |  |
| CC(C)N(CCC(O)c1ccc2c(c1)OCO2)Cc1ccccc1 (stereo not shown) [Example 62] | 0 |  |
| COc1ccc(NCCC(O)c2ccc3ccccc3c2)cc1 (stereo not shown) [Example 25] | 0 |  |
| CC(C)N(CCC(O)c1ccc(C(=O)O)cc1)Cc1ccccc1 (stereo not shown) [Example 67] | 27 |  |
| OC(CCN(Cc1ccccc1)C1CC1)c1ccc2ccccc2c1 (stereo not shown) [Example 37] | 36 |  |
| CC(C)N(CCC(O)c1ccc(OC(F)(F)F)cc1)Cc1ccccc1 (stereo not shown) [Example 58] | 1 |  |
| COc1ccc(CN(CCC(O)c2ccc3ccccc3c2)C(C)C)cc1 (stereo not shown) [Example 29] | 55 |  |
| Cc1cccc(C)c1C(O)CCN(Cc1ccccc1)C(C)C (stereo not shown) [Example 56] | 20 |  |
| COc1ccc(C(O)CCN(Cc2ccccc2)C(C)C)cc1OC (stereo not shown) [Example 59] | 0 |  |
| COC(CCN(Cc1ccccc1)C(C)C)c1ccc2cc(C(O)CCN(Cc3ccccc3)C(C)C)ccc2c1 (stereo not shown) [Example 86] | 12 |  |
| CC(CN(Cc1ccccc1)C(C)C)C(O)c1ccc2ccccc2c1 (stereo not shown) [Example 88] |  | 66 |
| CC(C)N(CCC(O)c1ccc(Oc2ccccc2)cc1)Cc1ccccc1 (stereo not shown) [Example 52] | 24 |  |
| CC(C)N(CCCC(O)c1ccc2ccccc2c1)Cc1ccccc1 (stereo not shown) [Example 46] | 2 |  |
| OC(CCN1CCN(Cc2ccccc2)CC1)c1ccc2ccccc2c1 (stereo not shown) [Example 47] | 0 |  |
| OC(CCN1CCCCCCC1)c1ccc2ccccc2c1 (stereo not shown) [Example 6] | 20 |  |
| CC(CN(Cc1ccccc1)C(C)C)C(O)c1ccc2ccccc2c1 (stereo not shown) [Example 87] |  | 22 |
| CN(CCC(O)c1ccc2ccccc2c1)c1ccc(Oc2ccccc2)cc1 (stereo not shown) [Example 26] | 6 |  |
| COc1ccc(NCCC(O)c2ccc(Cl)cc2)cc1 (stereo not shown) [Example 80] | 0 |  |
| OC(CCN(Cc1ccccc1)Cc1ccccc1)c1ccc2ccccc2c1 (stereo not shown) [Example 5] | 32 |  |

| Compound | inhibition at 100 µM [%] | γ-Secretase Assay ELISA % Inhibition [100 μM] Aβ1-40 [%] |
| --- | --- | --- |
| COC(CCN(Cc1ccccc1)C(C)C)c1ccc2ccccc2c1 (stereo not shown) [Example 84] | 51 |  |
| CC(C)N(CC[C@@H](O)c1ccc2ccccc2c1)Cc1ccccc1 [Example 75] | 0 |  |
| Cc1ccc(NCCC(O)c2ccc3ccccc3c2)cc1F (stereo not shown) [Example 78] | 0 |  |
| CC(C)N(CCC(O)c1ccc2ccccc2c1)Cc1cccc(C#N)c1 (stereo not shown) [Example 36] | 7 |  |
| COc1cccc2cc(C(O)CCN(Cc3ccccc3)C(C)C)oc12 (stereo not shown) [Example 70] | 0 |  |
| CC(C)N(CCC(O)c1ccc(F)cc1)Cc1ccccc1 (stereo not shown) [Example 38] | 17 |  |
| CC(C)N(CCC(O)c1ccc(OC2CCCCO2)cc1)Cc1ccccc1 (stereo not shown) [Example 50] | 0 |  |
| COc1ccc2cc(C(O)CCN(Cc3ccccc3)C(C)C)ccc2c1 (stereo not shown) [Example 51] | 10 |  |
| CC(C)N(CCC(O)c1ccc2ccccc2c1)Cc1ccc(C#N)cc1 (stereo not shown) [Example 34] | 19 |  |
| OC(CCNc1ccccc1)c1ccc2ccccc2c1 (stereo not shown) [Example 10] | 0 |  |
| OC(CCNc1cc(F)ccc1F)c1ccc2ccccc2c1 (stereo not shown) [Example 28] | 0 |  |
| CN(CCC(O)c1ccc2ccccc2c1)Cc1ccccc1 (stereo not shown) [Example 8] |  | 15 |
| CC(C)N(CCC(Oc1ccc(C(F)(F)F)cc1)c1ccc2ccccc2c1)Cc1ccccc1 (stereo not shown) [Example 85] | 50 |  |
| OC(CCNc1ccc(C2CCCCC2)cc1)c1ccc2ccccc2c1 (stereo not shown) [Example 22] | 0 |  |
| OC(CCN(C1CCCCC1)C1CCCCC1)c1ccc2ccccc2c1 (stereo not shown) [Example 7] | 7 |  |
| CC(C)N(CC[C@H](O)c1ccc2ccccc2c1)Cc1ccccc1 [Example 76] | 17 |  |
| OC(CCNc1ccc(C(F)(F)F)cc1)c1ccc2ccccc2c1 (stereo not shown) [Example 24] | 0 |  |
| CC(C)CN(CCC(O)c1ccc2ccccc2c1)CC(C)C (stereo not shown) [Example 9] | 0 |  |
| OC(CCNc1ccc2c(c1)OCCO2)c1ccc2ccccc2c1 (stereo not shown) [Example 21] | 0 |  |
| CC(C)(C)c1ccc(C(O)CCN2CCN(c3ccc(F)cc3)CC2)cc1 (stereo not shown) [Example 40] | 46 |  |

| Compound | inhibition at 100 µM [%] | γ-Secretase Assay ELISA % Inhibition [100 μM] Aβ1-40 [%] |
| --- | --- | --- |
| CC(C)N(CCCC(O)c1cccc2ccccc12)Cc1ccccc1 (stereo not shown) [Example 45] | 0 |  |
| CC(C)N(CCC(O)c1ccc2ccccc2c1)Cc1ccc(F)c(Cl)c1 (stereo not shown) [Example 43] | 0 |  |
| CC(C)N(CCC(O)c1ccc2ccccc2c1)Cc1ccc(C(=O)O)cc1 (stereo not shown) [Example 66] | 2 |  |
| CC(C)N(CCC(O)c1ccccc1)Cc1ccccc1 (stereo not shown) [Example 4] | 10 |  |
| CC(C)N(CCC(O)c1ccc2ccccc2c1)c1ccc(Cl)cc1 (stereo not shown) [Example 27] | 0 |  |
| CC(C)N(CCC(O)c1cccc(OCc2ccccc2)c1)Cc1ccccc1 (stereo not shown) [Example 53] | 31 |  |
| CCN(CCC(O)c1ccc2ccccc2c1)Cc1ccccc1 (stereo not shown) [Example 12] | 0 |  |
| CC(C)N(CCC(O)c1ccccc1CN1CCCCC1)Cc1ccccc1 (stereo not shown) [Example 61] | 0 |  |
| Cc1ccc(C(O)CCN(Cc2ccccc2)C(C)C)cc1C (stereo not shown) [Example 63] | 0 |  |
| CN(CCc1ccccc1)CCC(O)c1ccc2ccccc2c1 (stereo not shown) [Example 15] | 27 |  |
| CC(C)N(CCC(O)c1ccc(C#N)cc1)Cc1ccccc1 (stereo not shown) [Example 64] | 6 |  |
| OC(CCN1CCC2(CC1)OCCO2)c1ccc2ccccc2c1 (stereo not shown) [Example 16] | 2 |  |
| COc1cc(CN(CCC(O)c2ccc3ccccc3c2)C(C)C)cc(OC)c1 (stereo not shown) [Example 35] | 17 |  |
| Cc1cc(C)c(C(O)CCN(Cc2ccccc2)C(C)C)c(C)c1 (stereo not shown) [Example 49] | 0 |  |
| COc1ccc(N2CCN(CCC(O)c3ccc4ccccc4c3)CC2)cc1 (stereo not shown) [Example 2] | 0 |  |
| OC(CCNc1ccc(Oc2ccccc2)cc1)c1ccc2ccccc2c1 (stereo not shown) [Example 77] | 48 |  |
| CCOc1ccc(NCCC(O)c2ccc(F)cc2)cc1 (stereo not shown) [Example 79] | 0 |  |
| COc1ccc(C(O)CCN(Cc2ccccc2)C(C)C)cc1F (stereo not shown) [Example 60] | 0 |  |
| OC(CCN1CCN(c2ccc(F)cc2)CC1)c1ccc(C(F)(F)F)cc1 (stereo not shown) [Example 39] | 14 |  |

Molecular target: T3, γ-secretase (N100FLAG Notch-based substrate) (Homo sapiens, UniProt P49768)
T3 construct: made in house; host or cells: S-1 CHO cell line (Chinese hamster ovary)
Test: In vitro γ-secretase assay, N-100 Flag (Notch-based substrate) cleavage
Type: biochemical
Settings: effect on N-100 Flag cleavage; compounds tested in vitro at 100 μM
Experimental: as §1, §2, §3

| Compound | γ-Secretase Assay N-100 Flag |
| --- | --- |
| Cc1cccc(C)c1C(O)CCN(Cc1ccccc1)C(C)C (stereo not shown) [Example 56] | Inh |
| CC(C)N(CC[C@@H](O)c1ccc2ccccc2c1)Cc1ccccc1 [Example 75] | Inh |
